Key:
Plasmodium berghei [1] = experiment: Increased mean survival time in drug-sensitive Plasmodium berghei infected mice (Mus musculus) at 160 mg/kg; cured 4 of 5; type: functional, organism-based; set-up: dose 160 mg/kg
Plasmodium berghei [2] = experiment: Antimalarial activity against Plasmodium berghei infected mice (Mus musculus) at 640 mg/kg; toxic in 5 of 5; type: functional, organism-based; set-up: dose 640 mg/kg
Plasmodium berghei [3] = experiment: Increased mean survival time in drug-sensitive Plasmodium berghei infected mice (Mus musculus) at 40 mg/kg; cured 1 of 5; type: functional, organism-based; set-up: dose 40 mg/kg
Plasmodium berghei [4] = experiment: Increased mean survival time in drug-sensitive Plasmodium berghei infected mice (Mus musculus) at 640 mg/kg; cured 2 of 5; type: functional, organism-based; set-up: dose 640 mg/kg
Plasmodium berghei [5] = experiment: Increased mean survival time in drug-sensitive Plasmodium berghei infected mice (Mus musculus) at 20 mg/kg dose; type: functional
Plasmodium berghei [6] = experiment: Increased mean survival time in drug-sensitive Plasmodium berghei infected mice (Mus musculus) at 40 mg/kg dose; type: functional
Plasmodium berghei [7] = experiment: Increased mean survival time in drug-sensitive Plasmodium berghei infected mice (Mus musculus) at 320 mg/kg; cured 3 of 5; type: functional, organism-based; set-up: dose 320 mg/kg
Plasmodium berghei [8] = experiment: Increased mean survival time in drug-sensitive Plasmodium berghei in mice (Mus musculus) at 80 mg/kg dose; type: functional
Plasmodium berghei [9] = experiment: Increased mean survival time in drug-sensitive Plasmodium berghei infected mice (Mus musculus) at 160 mg/kg; cured 1 of 5; type: functional, organism-based; set-up: dose 160 mg/kg
Plasmodium berghei [10] = experiment: Increase in mean survival time in drug-sensitive Plasmodium berghei infected mice (Mus musculus) at 160 mg/kg dose; cured 1 of 5; type: functional, organism-based; set-up: dose 160 mg/kg
Plasmodium berghei [11] = experiment: Increased mean survival time in drug-sensitive Plasmodium berghei infected mice (Mus musculus) at 640 mg/kg; cured 3 of 5; type: functional, organism-based; set-up: dose 640 mg/kg
Plasmodium berghei [12] = experiment: Increased mean survival time in drug-sensitive Plasmodium berghei infected mice (Mus musculus) at 320 mg/kg; cured 2 of 5; type: functional, organism-based; set-up: dose 320 mg/kg
Plasmodium berghei [13] = experiment: Antimalarial activity against Plasmodium berghei infected mice (Mus musculus) at 320 mg/kg; toxic in 3 of 5; type: functional, organism-based; set-up: dose 320 mg/kg
Plasmodium berghei [14] = experiment: Antimalarial activity against Plasmodium berghei infected mice (Mus musculus) at 320 mg/kg; toxic in 2 of 5; type: functional, organism-based; set-up: dose 320 mg/kg
Plasmodium berghei [15] = experiment: Increased mean survival time in drug-sensitive Plasmodium berghei infected mice (Mus musculus) at 160 mg/kg; cured 3 of 5; type: functional, organism-based; set-up: dose 160 mg/kg
Plasmodium berghei [16] = experiment: Antimalarial activity against Plasmodium berghei infected mice (Mus musculus) at 20 mg/kg; toxic in 1 of 5; type: functional, organism-based; set-up: dose 20 mg/kg
Plasmodium berghei [17] = experiment: Increased mean survival time in drug-sensitive Plasmodium berghei infected mice (Mus musculus) at 80 mg/kg; active; type: functional
Plasmodium berghei [18] = experiment: Antimalarial activity against Plasmodium berghei infected mice (Mus musculus) at 160 mg/kg; toxic in 1 of 5; type: functional, organism-based; set-up: dose 160 mg/kg
Plasmodium berghei [19] = experiment: Antimalarial activity against Plasmodium berghei infected mice (Mus musculus) at 80 mg/kg; toxic in 1 of 5; type: functional, organism-based; set-up: dose 80 mg/kg
Plasmodium berghei [20] = experiment: Increased mean survival time in drug-sensitive Plasmodium berghei infected mice (Mus musculus) at 640 mg/kg; toxic in 5 of 5; type: functional, organism-based; set-up: dose 640 mg/kg
Plasmodium berghei [21] = experiment: Increased mean survival time in drug-sensitive Plasmodium berghei infected mice (Mus musculus) at 5 mg/kg; cured 2 of 5; type: functional
Plasmodium berghei [22] = experiment: Increased MST in drug-sensitive Plasmodium berghei infected mice (Mus musculus) at 10 mg/kg; […]; type: functional, organism-based; set-up: dose 10 mg/kg
Plasmodium berghei [23] = experiment: Antimalarial activity against Plasmodium berghei infected mice (Mus musculus) at 160 mg/kg; toxic in 3 of 5; type: functional, organism-based; set-up: dose 160 mg/kg
Plasmodium berghei [24] = experiment: Antimalarial activity against Plasmodium berghei infected mice (Mus musculus) at 40 mg/kg; toxic in 5 of 5; type: functional, organism-based; set-up: dose 40 mg/kg
Plasmodium berghei [25] = experiment: Increased mean survival time in drug-sensitive Plasmodium berghei infected mice (Mus musculus) at 640 mg/kg dose; type: functional
Plasmodium berghei [26] = experiment: Increased mean survival time in drug-sensitive Plasmodium berghei infected mice (Mus musculus) at 160 mg/kg; toxic in 1 of 5; type: functional, organism-based; set-up: dose 160 mg/kg
Plasmodium berghei [27] = experiment: Increased mean survival time in drug-sensitive Plasmodium berghei infected mice (Mus musculus) at 320 mg/kg; toxic in 4 of 5; type: functional, organism-based; set-up: dose 320 mg/kg
Plasmodium berghei [28] = experiment: Antimalarial activity against Plasmodium berghei infected mice (Mus musculus) at 160 mg/kg; cured 1 of 5; type: functional, organism-based; set-up: dose 160 mg/kg
Plasmodium berghei [29] = experiment: Increased mean survival time in drug-sensitive Plasmodium berghei infected mice (Mus musculus) at 80 mg/kg; cured 1 of 5; type: functional, organism-based; set-up: dose 80 mg/kg
Plasmodium berghei [30] = experiment: Increased mean survival time in drug-sensitive Plasmodium berghei infected mice (Mus musculus) at 320 mg/kg; cured 5 of 5; type: functional, organism-based; set-up: dose 320 mg/kg
Plasmodium berghei [31] = experiment: Increased mean survival time in drug-sensitive Plasmodium berghei infected mice (Mus musculus) at 640 mg/kg; cured 5 of 5; type: functional, organism-based; set-up: dose 640 mg/kg
Plasmodium berghei [32] = experiment: Increased mean survival time in drug-sensitive Plasmodium berghei infected mice (Mus musculus) at 640 mg/kg; toxic in 2 of 5; type: functional
Plasmodium berghei [33] = experiment: Increase in mean survival time in drug-sensitive Plasmodium berghei infected mice (Mus musculus) at 160 mg/kg dose; type: functional
Plasmodium berghei [34] = experiment: Antimalarial activity against Plasmodium berghei infected mice (Mus musculus) at 320 mg/kg; toxic in 5 of 5; type: functional, organism-based; set-up: dose 320 mg/kg
Plasmodium berghei [35] = experiment: Increased mean survival time in drug-sensitive Plasmodium berghei infected mice (Mus musculus) at 40 mg/kg; active; type: functional
Plasmodium berghei [36] = experiment: Antimalarial activity against Plasmodium berghei in mice (Mus musculus) at 40 mg/kg; toxic in 3 of 5; type: functional, organism-based; set-up: dose 40 mg/kg

CC(N/N=C(\S)N1CCC(c2ccccc2)CC1)c1ccccn1 (stereo not drawn)
Survival time (Plasmodium berghei [1]): Cured 4 of 5 mice
Survival time (Plasmodium berghei [2]): Toxic in 5 of 5 mice
Survival time (Plasmodium berghei [3]): Cured 1 of 5 mice

CC(N/N=C(\[SeH])N1CCCCCC1)c1ccccn1 (stereo not drawn)
Survival time (Plasmodium berghei [4]): Cured 2 of 5 mice; toxic in 2 of 5 mice
Survival time (Plasmodium berghei [5]): 0.3 days
Survival time (Plasmodium berghei [6]): 5.9 days
Survival time (Plasmodium berghei [7]): Cured 3 of 5 mice; toxic in 2 of 5 mice
Survival time (Plasmodium berghei [8]): 6.1 days
Survival time (Plasmodium berghei [9]): Cured 1 of 5 mice

C/C(=N\N=C(/[SeH])N1CC2CCC(CC2)C1)c1ccccn1
Survival time (Plasmodium berghei [10]): Cured 1 of 5 mice
Survival time (Plasmodium berghei [5]): -0.1 days
Survival time (Plasmodium berghei [6]): 0.8 days
Survival time (Plasmodium berghei [8]): 5.9 days
Survival time (Plasmodium berghei [11]): Cured 3 of 5 mice
Survival time (Plasmodium berghei [12]): Cured 2 of 5 mice

CC(N/N=C(\S)N(C)C1CCCCC1)c1ccccn1 (stereo not drawn)
Survival time (Plasmodium berghei [13]): Toxic in 3 of 5 mice
Survival time (Plasmodium berghei [14]): Cured 2 of 5 mice
Survival time (Plasmodium berghei [15]): Cured 3 of 5 mice
Survival time (Plasmodium berghei [5]): 2.9 days
Survival time (Plasmodium berghei [6]): 3.7 days
Survival time (Plasmodium berghei [16]): Toxic in 1 of 5 mice
Survival time (Plasmodium berghei [17]): 7.1 days
Survival time (Plasmodium berghei [18]): Toxic in 1 of 5 mice
Survival time (Plasmodium berghei [19]): Toxic in 1 of 5 mice

C/C(=N\NC(=S)N(C)C)c1ccccn1
Survival time (Plasmodium berghei [6]): 0.5 days
Survival time (Plasmodium berghei [20]): Toxic in 5 of 5 mice

CC(N/N=C(\S)N1CC2CCC(CC2)C1)c1ccccn1 (stereo not drawn)
Survival time (Plasmodium berghei [21]): 7.9 days
Survival time (Plasmodium berghei [22]): Cured 2 of 5 mice
Survival time (Plasmodium berghei [16]): Cured 4 of 5 mice; toxic in 1 of 5 mice
Survival time (Plasmodium berghei [9]): Cured 1 of 5 mice
Survival time (Plasmodium berghei [2]): Toxic in 5 of 5 mice
Survival time (Plasmodium berghei [23]): Toxic in 3 of 5 mice
Survival time (Plasmodium berghei [24]): Toxic in 5 of 5 mice

CC(N/N=C(\[SeH])N1CC2CCC(CC2)C1)c1ccccn1 (stereo not drawn)
Survival time (Plasmodium berghei [5]): -0.3 days
Survival time (Plasmodium berghei [6]): 0.5 days
Survival time (Plasmodium berghei [8]): 5.5 days
Survival time (Plasmodium berghei [25]): -0.3 days
Survival time (Plasmodium berghei [26]): Cured 2 of 5 mice
Survival time (Plasmodium berghei [27]): Cured 4 of 5 mice; toxic in 1 of 5 mice

CC(N/N=C(\S)N1CCCC1)c1ccccn1 (stereo not drawn)
Survival time (Plasmodium berghei [5]): 1.3 days
Survival time (Plasmodium berghei [6]): 5.2 days
Survival time (Plasmodium berghei [28]): Cured 1 of 5 mice
Survival time (Plasmodium berghei [2]): Toxic in 5 of 5 mice
Survival time (Plasmodium berghei [23]): Toxic in 3 of 5 mice

C/C(=N\N=C(/S)N1CCC(c2ccccc2)CC1)c1ccccn1
Survival time (Plasmodium berghei [15]): Cured 3 of 5 mice
Survival time (Plasmodium berghei [6]): 0.4 days
Survival time (Plasmodium berghei [29]): Cured 1 of 5 mice
Survival time (Plasmodium berghei [30]): Cured 5 of 5 mice
Survival time (Plasmodium berghei [31]): Cured 5 of 5 mice

C/C(=N\N=C(/S)NCc1ccccc1)c1ccccn1
Survival time (Plasmodium berghei [32]): 10.6 days
Survival time (Plasmodium berghei [33]): 3.7 days
Survival time (Plasmodium berghei [6]): 0.5 days

CCOC(=O)N1CCN(/C(S)=N/NC(C)c2ccccn2)CC1 (stereo not drawn)
Survival time (Plasmodium berghei [34]): Toxic in 5 of 5 mice
Survival time (Plasmodium berghei [5]): 5.9 days
Survival time (Plasmodium berghei [35]): 7.2 days
Survival time (Plasmodium berghei [36]): Toxic in 3 of 5 mice
Survival time (Plasmodium berghei [2]): Toxic in 5 of 5 mice
Survival time (Plasmodium berghei [23]): Toxic in 5 of 5 mice

Reference: ChEMBL document CHEMBL1122447, “2-Acetylpyridine thiosemicarbazones. 5. 1-[1-(2-Pyridyl)ethyl]-3-thiosemicarbazides as potential antimalarial agents” (1983)
